Reference: patent publication US10973831B2, “Fluoropiperidine compounds as pure 5-HT 6 receptor antagonists” (SUVEN LIFE SCIENCES LIMITED, priority 2017, dated 2021)

Legend:
[1] = biological target: T1, recombinant human 5-HT6 receptor (Homo sapiens, UniProt P50406); test: Determination of Kb for 5-HT6 receptor (CHO cells, pCRE-Luc reporter, cAMP); type: cell-based; settings: 10 μM serotonin, luciferase reporter
T1 construct: expressed in transfected cells
Protocol: Determination of Kb for 5-HT6 Receptor: A stable CHO cell line expressing recombinant human 5-HT6 receptor and pCRE-Luc reporter system was used for cell based assay. The assay offers a non-radioactive based approach to determine binding of a compound to GPCRs. In this specific assay, the level of intracellular cyclic AMP which is modulated by activation or inhibition of the receptor is measured. The recombinant cells harbor luciferase reporter gene under the control of cAMP response element. The above cells were plated in 96 well clear bottom white plates at a density of 5×10^4 cells/well using Hams F12 medium containing 10% fetal bovine serum (FBS) and incubated overnight at 37° C. and 5% CO2 followed by serum starvation for 18-20 hrs. Increasing concentrations of test compounds were added along with 10 μM serotonin in Opti-MEM to the cells. The incubation was continued at 37° C. in CO2 incubator for 4 hours. After 4 hours cells were lysed using lysis buffer and luciferase assay buffer was added to each well and counts per second were recorded using luminescence counter. From counts per second (CPS) obtained, percent binding was calculated for each well by taking 10 μM 5-HT as 100% bound and vehicle as 0% bound. The percent bound values were plotted against compound concentrations and data were analyzed using a nonlinear, iterative curve-fitting computer program of Graph pad Prism 4 software. The Kb values were calculated using concentration of the agonist used in the assay.

[2] = biological target: T2, recombinant human 5-HT2A (Homo sapiens, UniProt P28223); test: Determination of 5-HT2A binding ([3H]-Ketanserin radioligand, membranes); settings: human 5-HT2A membranes, [3H]-Ketanserin 1.75 nM
T2 construct: purchased Perkin Elmer ES-313-M400UA
Protocol: Membrane preparation from recombinant human 5-HT2A cell line (Cat no. ES-313-M400UA) and radio ligand Ketanserin Hydrochloride, [Ethylene-^3H]-(R-41468) (Cat no. NET791250UC) were purchased from Perkin Elmer. All other reagents used in buffer preparation were purchased from Sigma. The final ligand concentration was 1.75 nM; non-specific determinant was 1-NP [10 μM] and 5-HT2A membrane protein (5 μg/well). 1-NP was used as a positive control. Reactions were carried out in 67 mM Tris pH 7.6 containing 0.5 mM EDTA buffer for 60 minutes at 25° C. Reaction was stopped by rapid filtration followed by six washes of the binding mixture using 96 well harvest plate (Millipore Cat no. MSFBNXB50) pre coated with 0.33% polyethyleneimine. The plate was dried and the bound radioactivity collected on the filters was determined by scintillation counting using MicroBeta TriLux. Radio ligand binding in the presence of non-labeled compound was expressed as a percent of the total binding and plotted against the log concentration of the compound. Ki values were determined using a nonlinear, iterative curve-fitting computer program of Graph pad Prism 4 software.

[3] = Rodent brain penetration study; type: in vivo, male Wistar rats; settings: male, Wistar, brain and plasma, po; rat, 3 mg/kg, p.o., brain-plasma ratio; read-out: Single dose rat brain penetration (Cb/Cp)
Protocol: Male Wistar rats (260±40 grams) were used as experimental animals. Three animals were housed in each cage. Animals were given water and food ad libitum throughout the experiment and maintained on a 12 hours light/dark cycle.
Brain penetration was determined in discrete manner in rats. One day prior to dosing day, male Wistar rats were acclimatized and randomly grouped according to their weight. At each time point (0.50, 1 and 2 hours) n=3 animals were used.
The test compounds were suitably preformulated and administered orally at (free base equivalent) 3 mg/kg. Blood samples were collected via cardiac puncture by using isoflurane anesthesia. The animals were sacrificed to collect brain tissue. Plasma was separated and brain samples were homogenized and stored frozen at −20° C. until analysis. The concentrations of the test compounds in plasma and brain were determined using LC-MS/MS method.
The test compounds were quantified in plasma and brain homogenate by qualified LC-MS/MS method using suitable extraction technique. The test compounds were quantified in the calibration range of 1-1000 ng/mL in plasma and brain homogenate. Study samples were analyzed using calibration samples in the batch and quality control samples spread across the batch. Extent of brain-plasma ratio (Cb/Cp) was calculated.

[4] = system: Male Wistar rats; test: Object recognition task model; type: in vivo; settings: rat, 0.1 mg/kg, p.o.
Protocol: The cognition-enhancing properties of compounds of this invention were estimated using an animal model of cognition i.e., object recognition task.
Male Wistar rats (˜230-280 grams) were used as experimental animals. Four animals were housed in each cage. Animals were kept on 20% food deprivation before one day and given water ad libitum throughout the experiment and maintained on a 12 hours light/dark cycle. The rats were habituated to individual arenas for […] in the absence of any objects.
One group of 12 rats received vehicle (1 mL/kg) orally and another set of animals received compound of the formula (I) orally thirty minutes prior to familiar (T1) and choice trial (T2).
The experiment was carried out in a 50×50×50 cm open field made up of acrylic. During the familiarization phase (T1), the rats were placed individually in the open field for 3 minutes, in which two identical objects (plastic bottles, 12.5 cm height×5.5 cm diameter) covered in yellow masking tape alone (a1 and a2) were positioned in two adjacent corners (10 cm from the walls). After 24 hours of the (T1) trial, the same rats were placed in the same arena as they were placed in T1 trial. During the choice phase (T2) rats were allowed to explore the open field for 3 minutes in presence of one familiar object (a3) and one novel object (b) (Amber color glass bottle, 12 cm high and 5 cm in diameter). During the T1 and T2 trial, explorations of each object (defined as sniffing, licking, chewing or having moving vibrissae whilst directing the nose towards the object at a distance of less than 1 cm) were recorded separately by stopwatch.
T1 is the total time spent exploring the familiar objects (a1+a2).
T2 is the total time spent exploring the familiar object and novel object (a3+b).

[5] = Non-clinical toxicology, repeated dose toxicity study in rat; type: in vivo; settings: rat, female rats
Protocol: (§1) The safety of the example 1 of instant invention and comparator example of U.S. Pat. No. 7,378,415 were evaluated in repeated dose toxicity study in rat.
(§2) Female rats were used as experimental animals for evaluating the toxicity profile of example 1 of instant invention and the comparator example of U.S. Pat. No. 7,378,415.
(§3) During the study, female rats were dosed at incremental doses for minimum of 4 days. Toxicity assessment was done on the mortality, clinical observation, change in the body weight, feed consumption, clinical and anatomical pathology. Systemic exposures were also estimated for both of the compounds. All quantitative variables are compared with control group using one-way ANOVA followed by Dunnet's post-hoc test on GraphPad Prism Software version 4, 2003.

[6] = system: Female rats; test: as above; type: in vivo; settings: repeated dose toxicity
Protocol: as §1, §2, §3

T1 sequence (P50406 whole entry): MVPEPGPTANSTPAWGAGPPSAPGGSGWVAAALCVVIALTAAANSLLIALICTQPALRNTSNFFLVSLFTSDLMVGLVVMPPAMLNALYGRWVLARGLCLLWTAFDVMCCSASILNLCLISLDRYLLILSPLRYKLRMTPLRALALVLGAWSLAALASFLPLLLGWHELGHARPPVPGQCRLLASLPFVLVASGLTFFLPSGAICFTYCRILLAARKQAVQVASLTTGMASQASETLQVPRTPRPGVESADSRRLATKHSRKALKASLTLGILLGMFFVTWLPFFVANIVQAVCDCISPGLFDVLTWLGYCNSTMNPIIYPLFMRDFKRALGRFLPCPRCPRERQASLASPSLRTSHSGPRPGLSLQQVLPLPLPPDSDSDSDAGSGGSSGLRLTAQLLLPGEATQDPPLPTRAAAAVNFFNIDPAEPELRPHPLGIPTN
T2 sequence (P28223 whole entry): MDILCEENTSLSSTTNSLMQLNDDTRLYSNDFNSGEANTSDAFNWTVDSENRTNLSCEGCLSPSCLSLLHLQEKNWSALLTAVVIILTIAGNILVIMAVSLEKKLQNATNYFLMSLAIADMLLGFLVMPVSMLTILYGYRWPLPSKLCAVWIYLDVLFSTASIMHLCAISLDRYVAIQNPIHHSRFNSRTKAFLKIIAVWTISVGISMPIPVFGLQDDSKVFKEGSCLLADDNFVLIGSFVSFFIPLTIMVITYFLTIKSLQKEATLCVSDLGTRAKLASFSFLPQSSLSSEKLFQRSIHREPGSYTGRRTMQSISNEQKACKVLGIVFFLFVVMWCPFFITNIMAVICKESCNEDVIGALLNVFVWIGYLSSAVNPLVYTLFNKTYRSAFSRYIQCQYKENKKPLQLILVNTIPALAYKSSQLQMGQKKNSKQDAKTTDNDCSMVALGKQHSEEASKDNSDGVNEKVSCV

Which Kb [1] does the source give for `Cl.O=S(=O)(c1ccccc1)c1ccc2c(c1)OCCN2C1CCNCC1F` (single isomer, unassigned; peak iii) [Example 1, 7-Phenylsulfonyl-4-(3-fluoropiperidin-4-yl)-3,4-dihydro-2H-benzo[1,4]oxazine hydrochloride (Peak III)] here?
The Kb was 0.04 nM.

And the Ki [2]?
Its Ki is 130 nM.

And the Kp [3]?
The Kp was 0.78 ± 0.2.

And the “Exploration time mean ± S.E.M, Familiar object” value ([4]; choice trial T2)?
Its value is 7.03 ± 1.1 s.

What about the “Exploration time mean ± S.E.M, Novel object” value ([4]; choice trial T2) of the same compound?
The value was 12.16 ± 0.72 s.

And the Inference ([4]; object recognition task)?
The Inference was “Active”.

What about the NOAEL at 4 days ([5]; in vivo, 4-Day repeat tox) of the same compound?
Its NOAEL at 4 days is 300 mg/kg.

And the MTD ([5]; in vivo, repeated incremental doses, read-out: Maximum Tolerated Dose)?
Its MTD is ≥ 300 mg/kg.

What about the AUC ([5]; plasma, repeated dose toxicity study, read-out: AUC (systemic exposure in toxicity study)) of the same compound?
The AUC was 38100 ng·h/mL.

What about the Cmax ([5]; plasma, repeated dose toxicity study, read-out: Cmax (systemic exposure in toxicity study)) of the same compound?
Its Cmax is 2420 ng/mL.

And the “Findings (mortality)” value [6]?
Its value is “No death up”.

And the “Findings (mortality)” value ([6]; listed as example 1)?
Its value is “no deaths were observed at doses as high as 300 mg/kg”.
